The target in the assay is Mitogen-activated protein kinase 1 (Homo sapiens, UniProt P28482). Nature of the assay: Cell-Free Kinase Assays: The inhibitory effect of the compounds according to the invention was tested on various serine/threonine, tyrosine and lipid kinases in enzymatic assays. Recombinant human kinases such as, for example, Erk2, were used in this case, partly as full-length kinases, partly as shortened fragments, but at least consisting of the functional kinase domains. The commercial kinase proteins (Proqinase, Upstate) were used as recombinant fusion proteins with GST (glutathion-S-transferase) or His-Tag. Depending on the type of substrate, the various kinase reactions were quantified by means of suitable ALPHA beads (Perkin-Elmer). MAPK-ALPHAs (e.g. Erk2): the test substance, 0.625 ng Erk2 (#14-173, Upstate), 10 uM ATP and 15 nM biotinylated MBP (myelin basic protein) substrate were incubated on a 384-well Optiplate (Perkin-Elmer) in a volume of 15 ul for 1 h in 25 mM Tris, 10 mM MgCl2, 0.1% Tween-20, 100 uM NaVO4, 2 mM DTT at pH 7.5.
Sequence of Mitogen-activated protein kinase 1 (P28482 whole entry, the tested form may be a part): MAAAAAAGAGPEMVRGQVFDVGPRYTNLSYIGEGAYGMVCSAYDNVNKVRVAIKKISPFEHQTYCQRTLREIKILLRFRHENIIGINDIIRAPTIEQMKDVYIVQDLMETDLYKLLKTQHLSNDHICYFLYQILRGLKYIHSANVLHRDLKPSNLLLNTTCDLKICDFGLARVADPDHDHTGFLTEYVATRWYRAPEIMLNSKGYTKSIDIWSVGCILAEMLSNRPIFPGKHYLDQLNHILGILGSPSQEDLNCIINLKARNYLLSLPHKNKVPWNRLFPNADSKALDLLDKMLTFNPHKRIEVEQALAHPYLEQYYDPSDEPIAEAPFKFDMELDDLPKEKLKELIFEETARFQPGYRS

The term IC50 denotes the point on the concentration scale where inhibition reaches its midpoint. As for `O=C(NCCCCc1ccccc1)Nc1ccc2ncc(-c3cnn(CC(F)F)c3)nc2n1`, the half-maximal inhibitory concentration (IC50) worked out at 2 nM.

The record behind these values is ChEMBL document CHEMBL3639008, “Pyridopyrazines as highly selective ras-Raf-Mek-Erk signal transduction pathway inhibitors” (2014).
